PMC4358768 (Journal of medicinal chemistry, 2011)

What was measured:
rP2Y1-GFP receptor = conditions: read-out: EC50 at P2Y1R (rP2Y1-GFP receptor); cited from earlier work
tP2Y1 receptor = tP2Y1 receptor (Meleagris gallopavo, UniProt P49652); test: [Ca2+]i elevation in 1321N1 astrocytoma cells expressing turkey P2Y1 receptor; assay type: cell-based; conditions: 1321N1 astrocytoma cells stably transfected with turkey P2Y1 receptor, fura-2, 37 °C; for EC50: read-out: EC50 for [Ca2+]i elevation, P2Y1
Sequence of tP2Y1 receptor (P49652 whole entry): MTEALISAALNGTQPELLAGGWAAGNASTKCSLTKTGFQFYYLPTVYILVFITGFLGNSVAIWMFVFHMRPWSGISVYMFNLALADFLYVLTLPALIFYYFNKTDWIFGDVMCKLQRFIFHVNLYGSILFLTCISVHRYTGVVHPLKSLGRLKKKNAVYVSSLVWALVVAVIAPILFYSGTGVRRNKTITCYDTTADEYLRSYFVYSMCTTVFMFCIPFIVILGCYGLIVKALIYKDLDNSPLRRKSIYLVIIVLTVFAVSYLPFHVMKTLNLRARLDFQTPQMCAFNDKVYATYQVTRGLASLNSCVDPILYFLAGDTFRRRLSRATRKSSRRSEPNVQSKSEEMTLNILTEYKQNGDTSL

human e-NPP1 = molecular target: T1, human e-NPP1 (Homo sapiens, UniProt P22413); test: Hydrolysis of dinucleotides by human e-NPP1; assay type: in vitro ADME; conditions: over 20 min at 37 °C, pH 8.5
T1 sequence (P22413 1-925): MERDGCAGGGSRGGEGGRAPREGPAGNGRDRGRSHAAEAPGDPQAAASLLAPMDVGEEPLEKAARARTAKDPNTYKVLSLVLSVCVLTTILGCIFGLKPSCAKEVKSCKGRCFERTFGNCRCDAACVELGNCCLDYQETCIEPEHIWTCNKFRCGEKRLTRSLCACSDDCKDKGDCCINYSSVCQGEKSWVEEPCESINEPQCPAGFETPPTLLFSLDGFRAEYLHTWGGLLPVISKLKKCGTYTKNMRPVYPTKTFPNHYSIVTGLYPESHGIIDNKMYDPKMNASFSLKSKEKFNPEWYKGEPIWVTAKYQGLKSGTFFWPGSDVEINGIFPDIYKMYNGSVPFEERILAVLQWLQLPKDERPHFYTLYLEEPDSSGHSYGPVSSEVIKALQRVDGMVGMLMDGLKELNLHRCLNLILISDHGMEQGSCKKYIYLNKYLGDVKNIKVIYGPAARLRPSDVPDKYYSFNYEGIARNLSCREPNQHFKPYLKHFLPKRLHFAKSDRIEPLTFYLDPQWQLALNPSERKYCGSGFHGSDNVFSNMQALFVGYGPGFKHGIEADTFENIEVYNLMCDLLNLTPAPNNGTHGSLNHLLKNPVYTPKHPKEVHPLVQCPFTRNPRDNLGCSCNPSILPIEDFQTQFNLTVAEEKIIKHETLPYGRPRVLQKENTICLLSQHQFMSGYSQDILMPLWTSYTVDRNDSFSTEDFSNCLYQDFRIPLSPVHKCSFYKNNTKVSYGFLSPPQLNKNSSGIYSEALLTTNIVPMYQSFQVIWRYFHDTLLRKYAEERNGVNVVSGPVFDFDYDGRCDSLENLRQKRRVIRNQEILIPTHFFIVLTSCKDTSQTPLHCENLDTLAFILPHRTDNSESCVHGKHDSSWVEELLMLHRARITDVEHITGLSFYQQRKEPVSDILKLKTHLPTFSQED

P2Y2R = conditions: read-out: EC50 at P2Y2R; cited from earlier work

CSc1nc(N)c2ncn([C@@H]3O[C@H](COP(=O)(O)OP(=O)(O)O)[C@@H](O)[C@H]3O)c2n1 [Analogue 2-SMe-ADP]
EC50 (rP2Y1-GFP receptor): 100 nM

[BH3-][P+](O)(OP(=O)(O)OC[C@H]1O[C@@H](n2ccc(=O)[nH]c2=O)[C@H](O)[C@@H]1O)OP(=O)(O)OP(=O)(O)OC[C@H]1O[C@@H](n2ccc(=O)[nH]c2=O)[C@H](O)[C@@H]1O (some centres unmarked) [Analogue 7A, P^2-Borano-P^1,P^4-di(5′-uridine)tetraphosphate]
EC50 (tP2Y1 receptor): > 100000 nM

[BH3-][P+](O)(OP(=O)(O)OC[C@H]1O[C@@H](n2cnc3c(N)ncnc32)[C@H](O)[C@@H]1O)OP(=O)(O)OP(=O)(O)OC[C@H]1O[C@@H](n2ccc(=O)[nH]c2=O)[C@H](O)[C@@H]1O (some centres unmarked) [Analogue 8, P^3-Borano-P^1,P^4-5′-uridine-5′-adenosinetetraphosphate]
EC50 for [Ca2+]i elevation, P2Y1 (tP2Y1 receptor; listed as Ap4(β-B)U): inactive

[BH3-][P+](O)(OP(=O)(O)OC[C@H]1O[C@@H](n2cnc3c(N)ncnc32)[C@H](O)[C@@H]1O)OP(=O)(O)OP(=O)(O)OC[C@H]1O[C@@H](n2ccc(=O)[nH]c2=O)[C@H](O)[C@@H]1O (some centres unmarked) [Analogue 8A, P^3-Borano-P^1,P^4-5′-uridine-5′-adenosinetetraphosphate]
EC50 (tP2Y1 receptor): > 100000 nM

BP(=O)(OC[C@H]1O[C@@H](n2cnc3c(N)ncnc32)[C@H](O)[C@@H]1O)OP(=O)(O)OP(=O)(O)OC[C@H]1O[C@@H](n2cnc3c(N)ncnc32)[C@H](O)[C@@H]1O (some centres unmarked) [Analogue 10A, P^1-Borano-P^1,P^3-5′-diadenosinetriphosphate]
percentage of the compound hydrolyzed by human e-NPP1 (human e-NPP1): completely resistant to hydrolysis

BP(=O)(OC[C@H]1O[C@@H](n2ccc(=O)[nH]c2=O)[C@H](O)[C@@H]1O)OP(=O)(O)OP(=O)(O)OC[C@H]1O[C@@H](n2ccc(=O)[nH]c2=O)[C@H](O)[C@@H]1O (some centres unmarked) [Analogue 11A, P^1-Borano-P^1,P^3-5′-diuridinetriphosphate]
percentage of the compound hydrolyzed by human e-NPP1 (human e-NPP1): completely resistant to hydrolysis

BP(=O)(OC[C@H]1O[C@@H](n2ccc(=O)[nH]c2=O)[C@H](O)[C@@H]1O)OP(=O)(O)OP(=O)(O)OP(=O)(O)OC[C@H]1O[C@@H](n2ccc(=O)[nH]c2=O)[C@H](O)[C@@H]1O (some centres unmarked) [Analogue 13A, P^1-Borano-P^1,P^4-5′-diuridinetetraphosphate]
EC50 (tP2Y1 receptor): > 100000 nM

O=c1ccn([C@@H]2O[C@H](COP(=O)(O)OP(=O)(O)OP(=O)(O)O)[C@@H](O)[C@H]2O)c(=O)[nH]1 [UTP, uridine 5′-triphosphate]
EC50 (P2Y2R): 15 nM
